Measured values taken from publication PMC10945555, “Improving Activity of New Arylurea Agents against Multidrug-Resistant and Biofilm-Producing Staphylococcus epidermidis” (ACS Medicinal Chemistry Letters, 2024).
Converted amounts (≈) assume the structure as drawn.

Experiments:
[1] = system: BJ cells; assay: Cytotoxicity, MTT assay, skin fibroblasts; assay type: cell-based, human
Description: The following cell models were used in the research: rat cardiomyocytes (H9c2 line) and human skin fibroblasts (BJ line). All cell lines used in the work are commercially available and were purchased from ATCC banks (the American Type Culture Collection, Manassas, VI, USA). Cell cultures were carried out in an incubator under standard conditions (37°C, 5% CO 2).
Culture media (Dulbecco's Modified Eagle's Medium -DMEM (H9c2) and Eagle's Minimum Essential Medium-EMEM (BJ) were supplemented with 10% bovine serum and a 1% mixture of penicillin and streptomycin antibiotics. […]
doxorubicin (a cytotoxic drug) were used as reference and positive control, respectively. […]
solution (5 mg/mL) was transferred into culture medium of incubated cells. After 3 h, once dark crystals of formazan were produced in cells, medium was aspirated and 100 μ L of DMSO was added to dissolve formazan. Absorbance of DMSO solution was read on a multiwell plate reader (Spectra Max iD3, Molecular Devices) at 570 nm. In order to determine viability, absorbance of experimental wells was divided by absorbance of contro l well (not treated) and multiplied by 100 (%). Three separate experiments were performed. IC 50 was calculated using non-linear regression method in OriginPro software. […]

[2] = system: horse red blood cells; assay: Hemolytic activity assay
Description: 2.3.3 Hemolytic activity assay
The hemolytic properties of tested compound were evaluated according to previously reported procedure.6 Defibrinated horse red blood cells purchased from Thermo Fisher Scientific (Germany) were washed with PBS (3000 rpm, 10 min at 4 °C) for three times followed by PBS dilution to obtain a 8% suspension. Then, 100 μL of the resulting suspensions […]
were treated with 100 μL of tested compound at the final concentration of 200 μM, and incubated at 37 °C for 1 h. Triton X-100 (2%) and PBS were used as positive and negative controls, respectively. After centrifugation at 3000 rpm for 3 min, 100 μL of the supernatants were transferred to a 96 well microtiter plate and the hemoglobin release was determined in a SpectraMax iD3 reader (Molecular Devices) by absorption at 540 nm. […]

[3] = system: biofilm-producing Staphylococcus epidermidis strains; assay: Inhibition of biofilm formation (MBIC, resazurin); assay type: cell-based
Description: After 24 hours incubation each well of
concentration of 4 mg/mL was added. […]

[4] = system: biofilm-producing Staphylococcus epidermidis strains; assay: Biofilm eradication (MBEC Assay Kit); assay type: cell-based
[5] = S. epidermidis ATCC 35984 (Table S4)

Compound: O=C(Nc1cccc(Cl)c1)NC1CCN(CCC(Oc2ccc(C(F)(F)F)cc2)c2cccs2)CC1 (stereo not shown) [Compound 25]
- visible change in the appearance of the cells ([1]; 18 hours, sector F 25 µM, G 50 µM, tested 2.5-50 µM): visible in sector F and G
- IC50 ([1]; Homo sapiens, MTT, 24 h, n = 3): 13.2 µg/mL (≈ 24.5 µM)
- %hem (hemolytic activity) ([2]; 200 μM, 1 h, n = 3): 0.54%
- lysis of erythrocytes ([2]; concentrations up to 200 μM): None of them caused lysis of erythrocytes
- MBIC [3, 5]: 7.8 µg/mL
- MBIC50 ([3]; Table S4 strains): 15.6 µg/mL
- MBIC90 ([3]; Table S4 strains): 31.25 µg/mL
- MBIC ([3]; clinical strain 1 (Table S4)): 15.6 µg/mL
- MBIC ([3]; clinical strain 2 (Table S4)): 31.25 µg/mL
- MBIC ([3]; clinical strain 3 (Table S4)): 31.25 µg/mL
- MBIC ([3]; clinical strain 4 (Table S4)): 31.25 µg/mL
- MBIC ([3]; clinical strain 5 (Table S4)): 15.6 µg/mL
- MBIC ([3]; clinical strain 6 (Table S4)): 15.6 µg/mL
- MBIC ([3]; clinical strain 8 (Table S4)): 3.9 µg/mL
- MBIC ([3]; clinical strain 9 (Table S4)): 31.25 µg/mL
- MBIC ([3]; clinical strain 11 (Table S4)): 31.25 µg/mL
- MBIC ([3]; clinical strain 12 (Table S4)): 31.25 µg/mL
- MBIC ([3]; clinical strain 13 (Table S4)): 1.6 µg/mL
- MBIC ([3]; clinical strain 15 (Table S4)): 31.25 µg/mL
- MBIC ([3]; clinical strain 16 (Table S4)): 15.6 µg/mL
- MBIC ([3]; clinical strain 17 (Table S4)): 15.6 µg/mL
- MBIC ([3]; clinical strain 19 (Table S4)): 15.6 µg/mL
- MBIC ([3]; clinical strain 21 (Table S4)): 31.25 µg/mL
- MBIC ([3]; clinical strain 22 (Table S4)): 31.25 µg/mL
- MBIC ([3]; clinical strain 23 (Table S4)): 3.9 µg/mL
- MBIC ([3]; clinical strain 25 (Table S4, Figure 2)): 7.8 µg/mL
- MBIC ([3]; clinical strain 26 (Table S4)): 31.25 µg/mL
- MBIC ([3]; clinical strain 27 (Table S4)): 31.25 µg/mL
- MBIC ([3]; clinical strain 28 (Table S4)): 15.6 µg/mL
- MBIC ([3]; clinical strain 29 (Table S4)): 15.6 µg/mL
- MBIC ([3]; clinical strain 30 (Table S4)): 1.6 µg/mL
- MBIC ([3]; clinical strain 33 (Table S4)): 31.25 µg/mL
- MBIC ([3]; clinical strain 35 (Table S4)): 31.25 µg/mL
- MBIC ([3]; clinical strain 36 (Table S4)): 15.6 µg/mL
- MBIC ([3]; clinical strain 37 (Table S4)): 31.25 µg/mL
- MBIC ([3]; clinical strain 39 (Table S4)): 1.6 µg/mL
- MBIC ([3]; clinical strain 40 (Table S4)): 15.6 µg/mL
- MBIC ([3]; clinical strain 41 (Table S4)): 31.25 µg/mL
- MBIC ([3]; clinical strain 42 (Table S4)): 31.25 µg/mL
- MBIC ([3]; clinical strain 43 (Table S4)): 15.6 µg/mL
- MBIC ([3]; clinical strain 44 (Table S4)): 15.6 µg/mL
- MBIC ([3]; clinical strain 45 (Table S4)): 31.25 µg/mL
- MBIC ([3]; clinical strain 46 (Table S4)): 31.25 µg/mL
- MBIC ([3]; clinical strain 47 (Table S4)): 15.6 µg/mL
- MBIC ([3]; clinical strain 49 (Table S4)): 15.6 µg/mL
- MBIC ([3]; clinical strain 51 (Table S4)): 31.25 µg/mL
- MBIC ([3]; clinical strain 55 (Table S4)): 31.25 µg/mL
- MBIC ([3]; clinical strain 58 (Table S4)): 31.25 µg/mL
- MBIC ([3]; clinical strain 59 (Table S4)): 31.25 µg/mL
- MBIC ([3]; clinical strain 65 (Table S4)): 31.25 µg/mL
- MBIC ([3]; clinical strain 66 (Table S4)): 15.6 µg/mL
- MBIC ([3]; clinical strain 67 (Table S4)): 31.25 µg/mL
- MBIC ([3]; clinical strain 70 (Table S4)): 31.25 µg/mL
- MBIC ([3]; clinical strain 73 (Table S4)): 7.8 µg/mL
- MBIC ([3]; clinical strain 74 (Table S4)): 15.6 µg/mL
- MBIC ([3]; clinical strain 75 (Table S4)): 15.6 µg/mL
- MBIC ([3]; clinical strain 78 (Table S4)): 7.8 µg/mL
- MBIC ([3]; clinical strain 79 (Table S4)): 7.8 µg/mL
- MBEC [4, 5]: 7.8 µg/mL
- MBEC50 ([4]; Table S4 strains): 31.25 µg/mL
- MBEC90 ([4]; Table S4 strains): 31.25 µg/mL
- MBEC ([4]; clinical strain 1 (Table S4)): 31.25 µg/mL
- MBEC ([4]; clinical strain 2 (Table S4)): 31.25 µg/mL
- MBEC ([4]; clinical strain 3 (Table S4)): 31.25 µg/mL
- MBEC ([4]; clinical strain 4 (Table S4)): 31.25 µg/mL
- MBEC ([4]; clinical strain 6 (Table S4)): 15.6 µg/mL
- MBEC ([4]; clinical strain 7 (Table S4)): 31.25 µg/mL
- MBEC ([4]; clinical strain 8 (Table S4)): 7.8 µg/mL
- MBEC ([4]; clinical strain 9 (Table S4)): 31.25 µg/mL
- MBEC ([4]; clinical strain 11 (Table S4)): 31.25 µg/mL
- MBEC ([4]; clinical strain 12 (Table S4)): 31.25 µg/mL
- MBEC ([4]; clinical strain 13 (Table S4)): 3.9 µg/mL
- MBEC ([4]; clinical strain 15 (Table S4)): 31.25 µg/mL
- MBEC ([4]; clinical strain 16 (Table S4)): 31.25 µg/mL
- MBEC ([4]; clinical strain 17 (Table S4)): 15.6 µg/mL
- MBEC ([4]; clinical strain 19 (Table S4)): 15.6 µg/mL
- MBEC ([4]; clinical strain 21 (Table S4)): 31.25 µg/mL
- MBEC ([4]; clinical strain 22 (Table S4)): 31.25 µg/mL
- MBEC ([4]; clinical strain 23 (Table S4)): 7.8 µg/mL
- MBEC ([4]; clinical strain 25 (Table S4)): 7.8 µg/mL
- MBEC ([4]; clinical strain 26 (Table S4)): 31.25 µg/mL
- MBEC ([4]; clinical strain 27 (Table S4)): 31.25 µg/mL
- MBEC ([4]; clinical strain 28 (Table S4)): 31.25 µg/mL
- MBEC ([4]; clinical strain 29 (Table S4)): 31.25 µg/mL
- MBEC ([4]; clinical strain 30 (Table S4)): 3.9 µg/mL
- MBEC ([4]; clinical strain 33 (Table S4)): 31.25 µg/mL
- MBEC ([4]; clinical strain 35 (Table S4)): 31.25 µg/mL
- MBEC ([4]; clinical strain 36 (Table S4)): 31.25 µg/mL
- MBEC ([4]; clinical strain 37 (Table S4)): 31.25 µg/mL
- MBEC ([4]; clinical strain 39 (Table S4)): 3.9 µg/mL
- MBEC ([4]; clinical strain 40 (Table S4)): 31.25 µg/mL
- MBEC ([4]; clinical strain 41 (Table S4)): 31.25 µg/mL
- MBEC ([4]; clinical strain 42 (Table S4)): 31.25 µg/mL
- MBEC ([4]; clinical strain 43 (Table S4)): 31.25 µg/mL
- MBEC ([4]; clinical strain 44 (Table S4)): 15.6 µg/mL
- MBEC ([4]; clinical strain 45 (Table S4)): 31.25 µg/mL
- MBEC ([4]; clinical strain 46 (Table S4)): 31.25 µg/mL
- MBEC ([4]; clinical strain 47 (Table S4)): 15.6 µg/mL
- MBEC ([4]; clinical strain 49 (Table S4)): 15.6 µg/mL
- MBEC ([4]; clinical strain 51 (Table S4)): 31.25 µg/mL
- MBEC ([4]; clinical strain 55 (Table S4)): 31.25 µg/mL
- MBEC ([4]; clinical strain 58 (Table S4)): 31.25 µg/mL
- MBEC ([4]; clinical strain 59 (Table S4)): 31.25 µg/mL
- MBEC ([4]; clinical strain 65 (Table S4)): 31.25 µg/mL
- MBEC ([4]; clinical strain 66 (Table S4)): 15.6 µg/mL
- MBEC ([4]; clinical strain 67 (Table S4)): 31.25 µg/mL
- MBEC ([4]; clinical strain 70 (Table S4)): 31.25 µg/mL
- MBEC ([4]; clinical strain 73 (Table S4)): 7.8 µg/mL
- MBEC ([4]; clinical strain 74 (Table S4)): 15.6 µg/mL
- MBEC ([4]; clinical strain 75 (Table S4)): 31.25 µg/mL
- MBEC ([4]; clinical strain 78 (Table S4)): 7.8 µg/mL
- MBEC ([4]; clinical strain 79 (Table S4)): 7.8 µg/mL
